From patent publication US9493416B2, “N-methyl-4-benzylcarbamidopyridinium chloride and a process for its preparation” (Farmak International Holding GmbH, priority 2012, dated 2016)

Assay: Active ingredient release (dissolution) profile from solid gelatine capsules in pharmacopeial buffer solutions
Format: physicochemical
Details: for released faster than FAV00A-Io by: 370.6 mg capsules vs FAV00A-Io 500 mg capsules
Protocol: Results of comparative studies of active ingredient release profiles from a drug formulated as solid gelatine capsules using two salts of N-methyl-4-benzylcarbamidopyridine, namely the chloride and iodide salts labelled “FAV00A-Cl” and “FAV00A-Io” hereinafter.
In order to assess the FAV00A-Cl substance release rate from a finished medicinal product, studies of active ingredient release profiles were carried out for FAV00A-Cl 370.6 mg capsules, in 3 reference pharmacopeial buffer solutions with pH 1.2, 4.5, 6.8 and typical measurement conditions (1000 ml of 0.1M HCl; 100 rpm (basket); 1000 ml of acetate buffer solution pH 4.5; 100 rpm (basket); 1000 ml of phosphate buffer solution pH 6.8; 100 rpm (basket), respectively). Study results were compared against FAV00A-Io 500 mg capsules (with consideration of molecular weights of FAV00A-Cl and FAV00A-Io substances: the dosage of FAV00A-Cl substance 370.6 mg is equivalent to the dosage of FAV00A-Io substance 500 mg). The iodide salt FAV00A-Io used in the study was the α-crystalline form of amizon as described in applicant's co-pending patent applications WO 2011/158058 and WO 2011/157743.

For `C[n+]1ccc(C(=O)NCc2ccccc2)cc1.[Cl-]` [FAV00A-Cl, N-methyl-4-benzylcarbamidopyridinium chloride], the “released faster than FAV00A-Io by” value (0.1M HCl, 5-th minute) was 40%, the “released faster than FAV00A-Io by” value (0.1M HCl, 10-th minute) was 20% and the “Dissolution classification of the product” value (based on release in 15 min of more than 85%) was “rapidly dissolving”. The “released faster than FAV00A-Io by” value (buffer solution with pH 4.5, 5-th minute) was 25%, the “released faster than FAV00A-Io by” value (buffer solution with pH 4.5, 10-th minute) was 10% and the “released faster than FAV00A-Io by” value (buffer solution with pH 6.8, 5-th minute) was 25%. For the same compound, the “released faster than FAV00A-Io by” value (buffer solution with pH 6.8, 10-th minute) was 15% and the “Release of substance from finished medicinal product in 15 min” value (in 15 min, 3 reference pharmacopoeial buffer solutions (pH 1.2, 4.5, 6.8)) was “more than 85%”.
